Each compound was assayed against Human LDHA (Homo sapiens (Human), UniProt P00338) (assay: human LDHA primary biochemical assay). Settings: biochemical LDHA inhibitory activity, assay of Example 1; activity level classes defined in nM.
Excerpt: This example describes a human LDHA primary biochemical assay employed in the characterization of a compound of formula (I) in an embodiment of the invention.
Test compounds were placed in a Greiner Bio-One (Monroe, N.C.) 1536-well black solid bottom assay plate. 200 millimolar (mM) Tris HCl, pH 7.4, 100 micromolar (μM) EDTA and 0.01% TWEEN-20™, final concentration, was used as the assay buffer. The LDHA reagent was 2 nanomolar (nM) Human LDHA (Meridian Life Science, Inc., Memphis, Tenn.), final concentration, in assay buffer. The substrate reagent was 0.06 mM NADH and 0.2 mM sodium pyruvate, final concentration, in assay buffer. The resazurin/diaphorase coupling reagent was 0.037 mM resazurin and 0.133 milligrams per milliliter (mg/mL) diaphorase, final concentration, in assay buffer. The inhibition of LDHA activity was measured by fluorescence emission.

| IC50 | SMILES |
| --- | --- |
| < 100 nM | Cc1cnc(-c2cccc(-c3nn(-c4nc(C(=O)O)cs4)c(CC4CC4)c3Cc3ccc(S(N)(=O)=O)c(F)c3)c2)nc1 [Compound 217] |
| < 100 nM | NS(=O)(=O)c1ccc(Cc2c(-c3cccc(-c4ccc(C(F)(F)F)cc4)c3)nn(-c3nc(C(=O)O)cs3)c2CC2CC2)cc1F [Compound 219, 2-(5-(cyclopropylmethyl)-4-(3-fluoro-4-sulfamoylbenzyl)-3-(4′-(trifluoromethyl)-[1,1′-biphenyl]-3-yl)-1H-pyrazol-1-yl)thiazole-4-carboxylic acid] |
| < 100 nM | NS(=O)(=O)c1ccc(Cc2c(-c3cccc(-c4ccc5c(c4)CCC5)c3)nn(-c3nc(C(=O)O)cs3)c2CC2CC2)cc1F [Compound 220, 2-(5-(cyclopropylmethyl)-3-(3-(2,3-dihydro-1H-inden-5-yl)phenyl)-4-(3-fluoro-4-sulfamoylbenzyl)-1H-pyrazol-1-yl)thiazole-4-carboxylic acid] |
| 100 to 1000 nM | NS(=O)(=O)c1ccc(Cc2c(-c3cccc(-c4ccc(C5CC5)cc4)c3)nn(-c3nc(C(=O)O)cs3)c2CC2CC2)cc1F [Compound 222, 2-(3-(4′-cyclopropyl-[1,1′-biphenyl]-3-yl)-5-(cyclopropylmethyl)-4-(3-fluoro-4-sulfamoylbenzyl)-1H-pyrazol-1-yl)thiazole-4-carboxylic acid] |
| 100 to 1000 nM | CCc1cc(-c2cc(-c3nn(-c4nc(C(=O)O)cs4)c(CC4CC4)c3Cc3ccc(S(N)(=O)=O)c(F)c3)ccc2F)ccc1OC [Compound 223, 2-(5-(cyclopropylmethyl)-3-(3′-ethyl-6-fluoro-4′-methoxy-[1,1′-biphenyl]-3-yl)-4-(3-fluoro-4-sulfamoylbenzyl)-1H-pyrazol-1-yl)thiazole-4-carboxylic acid] |
| 100 to 1000 nM | NS(=O)(=O)c1ccc(Cc2c(-c3cccc(-c4ccc(C(F)(F)C(F)(F)F)cc4)c3)nn(-c3nc(C(=O)O)cs3)c2CC2CC2)cc1F [Compound 224, 2-(5-(cyclopropylmethyl)-4-(3-fluoro-4-sulfamoylbenzyl)-3-(4′-(perfluoroethyl)-[1,1′-biphenyl]-3-yl)-1H-pyrazol-1-yl)thiazole-4-carboxylic acid] |
| 100 to 1000 nM | NS(=O)(=O)c1ccc(Cc2c(-c3ccc(F)c(-c4ccc(C(F)(F)C(F)(F)F)cc4)c3)nn(-c3nc(C(=O)O)cs3)c2CC2CC2)cc1F [Compound 225, 2-(5-(cyclopropylmethyl)-3-(6-fluoro-4′-(perfluoroethyl)-[1,1′-biphenyl]-3-yl)-4-(3-fluoro-4-sulfamoylbenzyl)-1H-pyrazol-1-yl)thiazole-4-carboxylic acid] |
| 100 to 1000 nM | CC(C)Cc1ccc(-c2cccc(-c3nn(-c4nc(C(=O)O)cs4)c(CC4CC4)c3Cc3ccc(S(N)(=O)=O)c(F)c3)c2)cc1 [Compound 226, 2-(5-(cyclopropylmethyl)-4-(3-fluoro-4-sulfamoylbenzyl)-3-(4′-isobutyl-[1,1′-biphenyl]-3-yl)-1H-pyrazol-1-yl)thiazole-4-carboxylic acid] |
| 100 to 1000 nM | CC(C)Cc1ccc(-c2cc(-c3nn(-c4nc(C(=O)O)cs4)c(CC4CC4)c3Cc3ccc(S(N)(=O)=O)c(F)c3)ccc2F)cc1 [Compound 227, 2-(5-(cyclopropylmethyl)-3-(6-fluoro-4′-isobutyl-[1,1′-biphenyl]-3-yl)-4-(3-fluoro-4-sulfamoylbenzyl)-1H-pyrazol-1-yl)thiazole-4-carboxylic acid] |
| < 100 nM | Cc1cc(-c2cccc(-c3nn(-c4nc(C(=O)O)cs4)c(CC4CC4)c3Cc3ccc(S(N)(=O)=O)c(F)c3)c2)ccc1O [Compound 228, 2-(5-(cyclopropylmethyl)-4-(3-fluoro-4-sulfamoylbenzyl)-3-(4′-hydroxy-3′-methyl-[1,1′-biphenyl]-3-yl)-1H-pyrazol-1-yl)thiazole-4-carboxylic acid] |
| < 100 nM | NS(=O)(=O)c1ccc(Cc2c(-c3cccc(-c4ccc(O)c(F)c4)c3)nn(-c3nc(C(=O)O)cs3)c2CC2CC2)cc1F [Compound 229, 2-(5-(cyclopropylmethyl)-3-(3′-fluoro-4′-hydroxy-[1,1′-biphenyl]-3-yl)-4-(3-fluoro-4-sulfamoylbenzyl)-1H-pyrazol-1-yl)thiazole-4-carboxylic acid] |
| 100 to 1000 nM | CC(C)c1ccc(-c2cccc(-c3nn(-c4nc(C(=O)O)cs4)c(CC4CC4)c3Cc3ccc(S(N)(=O)=O)c(F)c3)c2)cc1F [Compound 230, 2-(5-(cyclopropylmethyl)-3-(3′-fluoro-4′-isopropyl-[1,1′-biphenyl]-3-yl)-4-(3-fluoro-4-sulfamoylbenzyl)-1H-pyrazol-1-yl)thiazole-4-carboxylic acid] |
| < 100 nM | Cc1ccc(C#Cc2cccc(-c3nn(-c4nc(C(=O)O)cs4)c(CC4CC4)c3Cc3ccc(S(N)(=O)=O)c(F)c3)n2)s1 [Compound 231, 2-(5-(cyclopropylmethyl)-4-(3-fluoro-4-sulfamoylbenzyl)-3-(6-((5-methylthiophen-2-yl)ethynyl)pyridin-2-yl)-1H-pyrazol-1-yl)thiazole-4-carboxylic acid] |
| < 100 nM | Cc1ccc(C#Cc2cccc(-c3nn(-c4nc(C(=O)O)cs4)c(CCC4CC4)c3Cc3ccc(S(N)(=O)=O)c(F)c3)c2)o1 [Compound 232, 2-(5-(2-cyclopropylethyl)-4-(3-fluoro-4-sulfamoylbenzyl)-3-(3-((5-methylfuran-2-yl)ethynyl)phenyl)-1H-pyrazol-1-yl)thiazole-4-carboxylic acid] |
| 100 to 1000 nM | Cc1ccc(C#Cc2ccc(-c3nn(-c4nc(C(=O)O)cs4)c(CC4CC4)c3Cc3ccc(S(N)(=O)=O)c(F)c3)s2)s1 [Compound 233, 2-(5-(cyclopropylmethyl)-4-(3-fluoro-4-sulfamoylbenzyl)-3-(5-((5-methylthiophen-2-yl)ethynyl)thiophen-2-yl)-1H-pyrazol-1-yl)thiazole-4-carboxylic acid] |
| < 100 nM | Cc1cnc(C#Cc2cccc(-c3nn(-c4nc(C(=O)O)cs4)c(CCC4CC4)c3Cc3ccc(S(N)(=O)=O)c(F)c3)c2)s1 [Compound 234, 2-(5-(2-cyclopropylethyl)-4-(3-fluoro-4-sulfamoylbenzyl)-3-(3-((5-methylthiazol-2-yl)ethynyl)phenyl)-1H-pyrazol-1-yl)thiazole-4-carboxylic acid] |
| < 100 nM | Cc1ncc(C#Cc2cccc(-c3nn(-c4nc(C(=O)O)cs4)c(CCC4CC4)c3Cc3ccc(S(N)(=O)=O)c(F)c3)c2)s1 [Compound 235, 2-(5-(2-cyclopropylethyl)-4-(3-fluoro-4-sulfamoylbenzyl)-3-(3-((2-methylthiazol-5-yl)ethynyl)phenyl)-1H-pyrazol-1-yl)thiazole-4-carboxylic acid] |
| < 100 nM | Cc1nc(C#Cc2cccc(-c3nn(-c4nc(C(=O)O)cs4)c(CC4CC4)c3Cc3ccc(S(N)(=O)=O)c(F)c3)c2)cs1 [Compound 236, 2-(5-(cyclopropylmethyl)-4-(3-fluoro-4-sulfamoylbenzyl)-3-(3-((2-methylthiazol-4-yl)ethynyl)phenyl)-1H-pyrazol-1-yl)thiazole-4-carboxylic acid] |
| 100 to 1000 nM | Cc1ccc(C#Cc2csc(-c3nn(-c4nc(C(=O)O)cs4)c(CC4CC4)c3Cc3ccc(S(N)(=O)=O)c(F)c3)c2)s1 [Compound 237, 2-(5-(cyclopropylmethyl)-4-(3-fluoro-4-sulfamoylbenzyl)-3-(4-((5-methylthiophen-2-yl)ethynyl)thiophen-2-yl)-1H-pyrazol-1-yl)thiazole-4-carboxylic acid] |
| 100 to 1000 nM | Cc1cc(C#Cc2cccc(-c3nn(-c4nc(C(=O)O)cs4)c(CCC4CC4)c3Cc3ccc(S(N)(=O)=O)c(F)c3)c2)c(C)s1 [Compound 238, 2-(5-(2-cyclopropylethyl)-3-(3-((2,5-dimethylthiophen-3-yl)ethynyl)phenyl)-4-(3-fluoro-4-sulfamoylbenzyl)-1H-pyrazol-1-yl)thiazole-4-carboxylic acid] |
| 100 to 1000 nM | Cc1cc(C#Cc2cccc(-c3nn(-c4nc(C(=O)O)cs4)c(CCC4CC4)c3Cc3ccc(S(N)(=O)=O)c(F)c3)c2)cs1 [Compound 239, 2-(5-(2-cyclopropylethyl)-4-(3-fluoro-4-sulfamoylbenzyl)-3-(3-((5-methylthiophen-3-yl)ethynyl)phenyl)-1H-pyrazol-1-yl)thiazole-4-carboxylic acid] |
| < 100 nM | Cc1cc(C#Cc2cccc(-c3nn(-c4nc(C(=O)O)cs4)c(CC4CC4)c3Cc3ccc(S(N)(=O)=O)c(F)c3)c2)cs1 [Compound 240, 2-(5-(cyclopropylmethyl)-4-(3-fluoro-4-sulfamoylbenzyl)-3-(3-((5-methylthiophen-3-yl)ethynyl)phenyl)-1H-pyrazol-1-yl)thiazole-4-carboxylic acid] |
| 100 to 1000 nM | Cc1cc(C#Cc2cccc(-c3nn(-c4nc(C(=O)O)cs4)c(CC4CC4)c3Cc3ccc(S(N)(=O)=O)c(F)c3)c2)c(C)s1 [Compound 241, 2-(5-(cyclopropylmethyl)-3-(3-((2,5-dimethylthiophen-3-yl)ethynyl)phenyl)-4-(3-fluoro-4-sulfamoylbenzyl)-1H-pyrazol-1-yl)thiazole-4-carboxylic acid] |
| < 100 nM | Cc1ccc(C(=O)Cc2cccc(-c3nn(-c4nc(C(=O)O)cs4)c(CC4CC4)c3Cc3ccc(S(N)(=O)=O)c(F)c3)c2)s1 [Compound 242, 2-(5-(cyclopropylmethyl)-4-(3-fluoro-4-sulfamoylbenzyl)-3-(3-(2-(5-methylthiophen-2-yl)-2-oxoethyl)phenyl)-1H-pyrazol-1-yl)thiazole-4-carboxylic acid] |
| < 100 nM | Cc1nc(C#Cc2cccc(-c3nn(-c4nc(C(=O)O)cs4)c(CCC4CC4)c3Cc3ccc(S(N)(=O)=O)c(F)c3)c2)cs1 [Compound 243, 2-(5-(2-cyclopropylethyl)-4-(3-fluoro-4-sulfamoylbenzyl)-3-(3-((2-methylthiazol-4-yl)ethynyl)phenyl)-1H-pyrazol-1-yl)thiazole-4-carboxylic acid] |

Source: patent publication US10954228B2 (NATIONAL INSTITUTES OF HEALTH, UNITED STATES DEPARTMENT OF …, priority 2016, dated 2021)
